# Measurements taken from PubChem BioAssay AID330 (DTP/NCI, 2004).
# Where “and” joins values, the source holds several entries; their conditions need not be identical. Equal entries are not always repeated. Inconclusive results and toxic doses are left out. Peptide text beside a SMILES is read from it.
# System: P388 leukemia ip, CD2F1 mice, survival T/C
# Assay: NCI In Vivo Anticancer Drug Screen. Data for tumor model P388 Leukemia (intraperitoneal) in CD2F1 (CDF1) mice
# Conditions: endpoint: median survival time, higher = longer survival
# Procedure, shortened: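 Mice carrying the transplanted tumor received test compound or vehicle. Survival was recorded in each group, and the value is the treated-group measurement divided by that of the vehicle-treated control group.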
# [1] = dose: 50.0 mg/kg/injection, schedule: Q01DX005 (ip), vehicle: saline
# [2] = dose: 100.0 mg/kg/injection, schedule: Q01DX005 (ip), vehicle: saline
# [3] = dose: 200.0 mg/kg/injection, schedule: Q01DX005 (ip), vehicle: saline
# [4] = dose: 60.0 mg/kg/injection, schedule: Q01DX005 (ip), vehicle: saline with Tween-80
# [5] = dose: 120.0 mg/kg/injection, schedule: Q01DX005 (ip), vehicle: saline with Tween-80
# [6] = dose: 240.0 mg/kg/injection, schedule: Q01DX005 (ip), vehicle: saline with Tween-80
# [7] = dose: 50.0 mg/kg/injection, schedule: Q01DX009 (ip), vehicle: saline with Tween-80
# [8] = dose: 100.0 mg/kg/injection, schedule: Q01DX009 (ip), vehicle: saline with Tween-80
# [9] = dose: 12.5 mg/kg/injection, schedule: Q01DX009 (ip), vehicle: saline with Tween-80
# [10] = dose: 25.0 mg/kg/injection, schedule: Q01DX009 (ip), vehicle: saline with Tween-80
# [11] = dose: 100.0 mg/kg/injection, schedule: Q04DX002 (ip), vehicle: saline with Tween-80
# [12] = dose: 200.0 mg/kg/injection, schedule: Q04DX002 (ip), vehicle: saline with Tween-80
# [13] = dose: 50.0 mg/kg/injection, schedule: Q01DX005 (ip), vehicle: Klucel (hydroxypropylcellulose) (HPC)
structure (smiles),measurement,setting,value
Cc1cc(O)c2c(c1)C(=O)C(c1c(C)cc3c(c1O)C(=O)C1OC1C3=O)=CC2=O (stereo not drawn),T/C,"dose: 0.78 mg/kg/injection, schedule: Q01DX005 (ip), vehicle: Klucel (hydroxypropylcellulose) (HPC)",91 % of control
same,T/C,"dose: 1.56 mg/kg/injection, schedule: Q01DX005 (ip), vehicle: Klucel (hydroxypropylcellulose) (HPC)",106 % of control
same,T/C,"dose: 3.12 mg/kg/injection, schedule: Q01DX005 (ip), vehicle: Klucel (hydroxypropylcellulose) (HPC)",113 % of control
same,T/C,"dose: 6.25 mg/kg/injection, schedule: Q01DX005 (ip), vehicle: Klucel (hydroxypropylcellulose) (HPC)",100 % of control
CS(=O)(=O)c1noc(N)n1,T/C,[1],115 % of control
same,T/C,[2],113 % of control
same,T/C,[3],115 % of control
CCCc1[nH]n(-c2cccc([N+](=O)[O-])c2)c(=O)c1N=Nc1ccc(Cl)cc1,T/C,"dose: 50.0 mg/kg/injection, schedule: Q01DX009 (ip), vehicle: saline",93 % of control
same,T/C,"dose: 100.0 mg/kg/injection, schedule: Q01DX009 (ip), vehicle: saline",90 % of control
same,T/C,"dose: 200.0 mg/kg/injection, schedule: Q01DX009 (ip), vehicle: saline",87 % of control
Cc1cc(C)nc(/C=C/c2ccc(/C=C/c3cc(C)cc(C)n3)cc2)c1,T/C,[4],97 % of control
same,T/C,[5],87 % of control
same,T/C,[6],92 % of control
COc1nc(=O)n(C2C=CC(=O)O2)cc1F (stereo not drawn),T/C,"dose: 20.0 mg/kg/injection, schedule: Q01DX009 (ip), vehicle: saline",158 % of control and 173 % of control
same,T/C,"dose: 40.0 mg/kg/injection, schedule: Q01DX009 (ip), vehicle: saline",174 % of control and 196 % of control
same,T/C,"dose: 80.0 mg/kg/injection, schedule: Q01DX009 (ip), vehicle: saline",102 % of control
Cc1c(Cl)cccc1NC(=O)c1cccc([N+](=O)[O-])c1O,T/C,[7],102 % of control
same,T/C,[8],93 % of control
ClC(Cl)(Cl)Sn1cccn1,T/C,[7],104 % of control
same,T/C,[8],97 % of control
COc1cc2c(c(OC)c1OC)-c1ccc(OC)c(=O)cc1[C@@H](NC(=O)C(F)(F)F)CC2,T/C,"dose: 0.09 mg/kg/injection, schedule: Q01DX009 (ip), vehicle: Klucel (hydroxypropylcellulose) (HPC)",121 % of control
same,T/C,"dose: 0.18 mg/kg/injection, schedule: Q01DX009 (ip), vehicle: Klucel (hydroxypropylcellulose) (HPC)",123 % of control
same,T/C,"dose: 6.0 micrograms/kg/injection, schedule: Q01DX009 (ip), vehicle: Klucel (hydroxypropylcellulose) (HPC)",101 % of control
same,T/C,"dose: 12.0 micrograms/kg/injection, schedule: Q01DX009 (ip), vehicle: Klucel (hydroxypropylcellulose) (HPC)",111 % of control
same,T/C,"dose: 24.0 micrograms/kg/injection, schedule: Q01DX009 (ip), vehicle: Klucel (hydroxypropylcellulose) (HPC)",112 % of control
same,T/C,"dose: 24.38 micrograms/kg/injection, schedule: Q01DX009 (ip), vehicle: Klucel (hydroxypropylcellulose) (HPC)",120 % of control
same,T/C,"dose: 48.0 micrograms/kg/injection, schedule: Q01DX009 (ip), vehicle: Klucel (hydroxypropylcellulose) (HPC)",121 % of control
same,T/C,"dose: 48.75 micrograms/kg/injection, schedule: Q01DX009 (ip), vehicle: Klucel (hydroxypropylcellulose) (HPC)",120 % of control
same,T/C,"dose: 97.0 micrograms/kg/injection, schedule: Q01DX009 (ip), vehicle: Klucel (hydroxypropylcellulose) (HPC)",119 % of control
same,T/C,"dose: 97.5 micrograms/kg/injection, schedule: Q01DX009 (ip), vehicle: Klucel (hydroxypropylcellulose) (HPC)",118 % of control
same,T/C,"dose: 195.0 micrograms/kg/injection, schedule: Q01DX009 (ip), vehicle: Klucel (hydroxypropylcellulose) (HPC)",122 % of control
same,T/C,"dose: 390.0 micrograms/kg/injection, schedule: Q01DX009 (ip), vehicle: Klucel (hydroxypropylcellulose) (HPC)",155 % of control
CCN(CC)CCNc1cc2ccccc2c2sc3ccccc3c(=O)c12,T/C,"dose: 25.0 mg/kg/injection, schedule: Q01DX005 (ip), vehicle: distilled water + Tween-80",102 % of control
same,T/C,"dose: 50.0 mg/kg/injection, schedule: Q01DX005 (ip), vehicle: distilled water + Tween-80",103 % of control
COC(=O)C1=CCN2CCCC12C (stereo not drawn),T/C,"dose: 25.0 mg/kg/injection, schedule: Q01DX001 (ip), vehicle: saline",97 % of control
same,T/C,"dose: 50.0 mg/kg/injection, schedule: Q01DX001 (ip), vehicle: saline",101 % of control
same,T/C,"dose: 100.0 mg/kg/injection, schedule: Q01DX001 (ip), vehicle: saline",105 % of control
O=C(C#Cc1ccccc1)c1ccccc1,T/C,[9],122 % of control and 124 % of control
same,T/C,[10],98 % of control
same,T/C,[7],121 % of control
S=c1nc(Oc2ccc(-c3ccccc3)cc2)[nH]c(=S)[nH]1,T/C,[4],87 % of control
same,T/C,[5],92 % of control
same,T/C,[6],97 % of control
Cc1ccc(N=Nc2ccc(N(CCCl)CCCl)cc2C)c(C(=O)O)c1,T/C,[9],153 % of control and 177 % of control
same,T/C,[10],123 % of control
NC(N)=NS(=O)(=O)c1ccc(N=NC2C(=O)N(c3ccc(Cl)cc3)C(=S)N(c3ccc(Cl)cc3)C2=O)cc1,T/C,"dose: 25.0 mg/kg/injection, schedule: Q01DX005 (ip), vehicle: saline",103 % of control
same,T/C,[1],106 % of control and 117 % of control
same,T/C,[2],104 % of control and 124 % of control
same,T/C,[3],108 % of control
COc1cc(CC2c3cc(OC)c(OC)cc3CC[N+]2(C)C)c(Oc2cc(CC3c4cc(OC)c(OC)cc4CC[N+]3(C)C)ccc2OC)cc1OC (stereo not drawn),T/C,"dose: 1.56 mg/kg/injection, schedule: Q04DX003 (ip), vehicle: water",109 % of control
same,T/C,"dose: 3.13 mg/kg/injection, schedule: Q04DX003 (ip), vehicle: water",103 % of control
CCN(CC)CCOc1ccc(N=Nc2ccc(N)nc2N)cc1,T/C,[4],102 % of control
same,T/C,[5],93 % of control
same,T/C,[6],101 % of control
COC(=O)c1nn(-c2ccccc2)c2nc3ccccc3c-2c1C(=O)OC,T/C,[11],108 % of control
same,T/C,[12],108 % of control
same,T/C,"dose: 400.0 mg/kg/injection, schedule: Q04DX002 (ip), vehicle: saline with Tween-80",97 % of control
COC(=O)N1c2ccccc2C(c2ccccc2)=NC1C#N (stereo not drawn),T/C,"dose: 7.5 mg/kg/injection, schedule: Q01DX005 (ip), vehicle: saline with Tween-80",103 % of control
same,T/C,"dose: 15.0 mg/kg/injection, schedule: Q01DX005 (ip), vehicle: saline with Tween-80",112 % of control
same,T/C,"dose: 30.0 mg/kg/injection, schedule: Q01DX005 (ip), vehicle: saline with Tween-80",103 % of control
C=CC(=O)NC1(c2ccccc2)CN2CCC1CC2 (stereo not drawn),T/C,"dose: 50.0 mg/kg/injection, schedule: Q01DX009 (ip), vehicle: Klucel (hydroxypropylcellulose) (HPC)",96 % of control
C[n+]1ccc(-c2cc[n+](C)cc2)cc1,T/C,"dose: 0.39 mg/kg/injection, schedule: Q01DX009 (ip), vehicle: saline",98 % of control
same,T/C,"dose: 0.78 mg/kg/injection, schedule: Q01DX009 (ip), vehicle: saline",109 % of control
same,T/C,"dose: 1.56 mg/kg/injection, schedule: Q01DX009 (ip), vehicle: saline",103 % of control and 109 % of control
same,T/C,"dose: 3.12 mg/kg/injection, schedule: Q01DX009 (ip), vehicle: saline",100 % of control and 89 % of control
same,T/C,"dose: 6.25 mg/kg/injection, schedule: Q01DX009 (ip), vehicle: saline",87 % of control
CCc1ccc(C2=C(Cl)C(=O)C(c3ccccc3)=C(Cl)C2=O)cc1,T/C,"dose: 12.5 mg/kg/injection, schedule: Q01DX005 (ip), vehicle: Klucel (hydroxypropylcellulose) (HPC)",98 % of control
same,T/C,"dose: 25.0 mg/kg/injection, schedule: Q01DX005 (ip), vehicle: Klucel (hydroxypropylcellulose) (HPC)",93 % of control
same,T/C,[13],93 % of control and 98 % of control
O=c1[nH]c2n[nH]c(=S)n2c2c1CCC2,T/C,"dose: 50.0 mg/kg/injection, schedule: Q04DX002 (ip), vehicle: saline with Tween-80",99 % of control
same,T/C,[11],97 % of control
same,T/C,[12],99 % of control
Cn1c(=O)c2c(nc(Br)n2CC(=O)c2ccc([N+](=O)[O-])cc2)n(C)c1=O,T/C,"dose: 100.0 mg/kg/injection, schedule: Q04DX003 (ip), vehicle: saline",95 % of control
same,T/C,"dose: 200.0 mg/kg/injection, schedule: Q04DX003 (ip), vehicle: saline",96 % of control
same,T/C,"dose: 400.0 mg/kg/injection, schedule: Q04DX003 (ip), vehicle: saline",99 % of control
CCC(C)C(NC(=O)C(Cc1ccccc1)NC(=O)C(N)CSC)C(N)=O (stereo not drawn) (H-Cys(Me)-Phe-Ile-NH2; configuration not given here),T/C,[13],102 % of control
same,T/C,"dose: 100.0 mg/kg/injection, schedule: Q01DX005 (ip), vehicle: Klucel (hydroxypropylcellulose) (HPC)",99 % of control
same,T/C,"dose: 200.0 mg/kg/injection, schedule: Q01DX005 (ip), vehicle: Klucel (hydroxypropylcellulose) (HPC)",99 % of control
